Assays:
[1] = test system: DL rats (dual striatal-dopaminergic, cortical cholinergic system lesions); assay: MCMCT rotating rod with active distractor (water retrieval); type: in vivo, Sprague Dawley rats; settings: for number of animals that retrieved water in at least one trial: of 14 DL rats per group, licking water for at least 1 s, DL/VEH 9, SH/VEH 13
Protocol: (§1) Of the 70 rats, 56 (28 females and 28 males) received dual striatal-dopaminergic, corticalcholinergic system lesions (DL) and were randomly assigned to 4 treatment conditions after surgeries (n=14/group, 7/sex). 14 rats (7/sex) received sham lesions. 6-OHDA was delivered bilaterally to dopamine terminals in the dorsal striatum (Sigma-Aldrich; 6.0 μg/2 μL/infusion, bolus; dissolved in 0.9% NaCl with 0.1% ascorbic acid; two infusion sites per hemisphere: AP+1.2 and +0.2 mm; ML ±2.5 and ±3.0 mm relative to bregma; DV −4.8 and −5.0 mm from skull). Desipramine hydrochloride (10 mg/kg; i.p.; Sigma-Aldrich) was administered to rats receiving 6-OHDA infusions 30 min prior to surgeries for protection of noradrenergic neurons^4. Basal forebrain cholinergic neurons situated in the nucleus basalis and substantia innominate were targeted with immunotoxin 192 IgG-saporin (Advanced Targeting Systems) in aCSF infused bilaterally (120 ng/μL; 0.5 μL/hemisphere; AP −0.8; ML ±2.9; DV −7.8). Sham rats received equal volumes of 0.9% NaCl with 0.1% ascorbic acid (striatum) and aCSF (basal forebrain) without neurotoxins.
Two distractors were presented during traversals. First, a passive doorframe distractor, comprised of a 46.0×39.4 cm surface with a door-frame shape cutout of 20 cm×10 cm made of foam core, was incorporated into the MCMCT test sequence. The distractor was placed at the midway point along the beam (100 cm mark) with side jambs 3.5 cm from the rod surface on both sides and the top border of the doorframe cutout 11 cm above the flat rod surface. […] Second, animals were tested with an active distractor task in which a water reward (3 drops of water; ˜150 μL) was presented on a platform (4.9 cm diameter) during traversals. The platform was also placed at the 100 cm mark, with 2-3 cm separating the rod and the platform.
Rats were first acclimated to the task in 4 shaping trials (test days 8 and 9). In these trials rats were placed directly on the stationary (non-rotating) rod adjacent to the platform (approximately midway across the beam) and allowed to drink the water from the platform. After shaping trials, rats underwent 4 test trials in which the rats performed unassisted traversals of the rotating rod (alternating directions) with presentations of water rewards. In two other test days (10 and 12), rats performed 10 test runs per day. In addition to falls, the number of water rewards earned, defined as licking/drinking water from the platform for ≥1 sec, were counted. All trials were recorded using a system of 4 bullet cameras (KT&C; model KPCS190SH Black/White Bullet Camera with ⅓″ SONY Super HAD CCD) with rotatable bases that were fastened to the outer support frame of the outer side of the apparatus by hand clamps. Performance measures were analyzed by video playback by experimenters blind to the lesion status and treatment regimen of the rats
Donepezil and idalopirdine were dissolved in 5% 2-hydroxypropyl-beta-cyclodextrin vehicle solution. Rats were divided into the following drug administration groups (14 per group, 7 per sex): sham-lesioned and administered vehicle (SH/VEH), DL and vehicle (DL/VEH), DL and donepezil (DL/DON), DL and idalopirdine (DL/IDL), and DL and idalopirdine plus donepezil (DL/DON+IDL). Solutions were prepared the night before administration and were replaced every 6 days. DON and IDL were dissolved in the same solution for the combination treatment. […]

[2] = test system: DL rats (dual striatal-dopaminergic, cortical cholinergic system lesions); assay: MCMCT rod traversal, stationary and rotating rod (test days 2-5), Example 1; type: in vivo, Sprague Dawley rats; settings: for number of slips: rod days 2-5, DL/VEH 2.04+0.16, SH/VEH 1.60+0.11; for traversal speed (time per rod traversal): rod days 2-5, DL/VEH 4.62±0.25 s, SH/VEH 3.96±0.19 s, mean±SEM; for frequency of falls during rod traversal: s.c. 30 min before MCMCT, across all rod conditions days 2-5, compared with DL/VEH
Protocol: Adult male and female Sprague Dawley rats (Harlan; N=70; 35 males and 35 females) between 3 and 6 months of age were individually housed in opaque single standard cages (27.70 cm×20.30 cm) in a temperature- and humidity-controlled environment (23° C., 45%). […] The animals were maintained under a 12:12 hour light/dark schedule (lights on at 8:00 AM). Food (Rodent Chow; Harlan Teklad) was available ad libitum. Water access was gradually restricted over a 7-day period (12, 8, 5, 3, 1, 0.5, 0.25 hrs of water access per day) in the week before pre- and postsurgery behavioral testing. During testing, water was provided as rewards for correct responses during SAT performance and following beam traversals on the MCMCT (see below). Rats were also provided water ad libitum for 15 min following SAT performance each day.
Following pre-surgery training, animals underwent stereotaxic lesion surgeries followed by 4 weeks of recovery. During the final week of recovery animals were gradually water restricted. Drug effects were then assessed with 12 consecutive days of SAT and MCMCT sessions (see Table 1 for the battery of MCMCT test conditions):
Drug or vehicle injections were administered 30 minutes prior to SAT performance (˜9:30 injections, SAT testing 10:00-10:45 a.m.) and in the afternoon before MCMCT testing (˜3:30-6:00 p.m.). For the MCMCT runs, rats were injected individually so that trials began exactly 30 minutes after injection for each animal.
as §1
Complex movement performance measures including fall propensity were assessed using the MCMCT (for details and an illustration see Kucinski, A. et al (2013) Modelling fall propensity in Parkinson's disease: Deficits in the attentional control of complex movements in rats with cortical-cholinergic and striatal-dopaminergic deafferentation. J Neurosci, 33, 16522-16539). This beam traversal apparatus was designed to tax the ability of rats to perform attention demanding movements and correct for stepping errors while crossing a narrow square rod surface (2.54 cm2). The ends of the beam (2.0 m length) were held in sockets that allowed the rod to be rotated by a gear motor (10 RPM) coupled to one end of the beam element. Traversal of the rod, particularly when rotating, reliably generated falls and other movement impairments in rats with dual lesions of striatal dopaminergic and cortical cholinergic inputs. A flat plank surface (13.3 cm wide) was also used to assess basic motor capacity and for habituation to the apparatus. Two identical platforms (23.0×31.5 cm area) situated at the opposite ends of the beam were surrounded by retractable walls (27.0 cm height) to form end-box structures. The walls are raised and lowered manually and secured in position by a friction clamp which rides in a vertical slot in the support structure under the platform. […]

[3] = test system: DL rats (dual striatal-dopaminergic, cortical cholinergic system lesions); assay: MCMCT rotating rod with passive doorframe distractor (test days 6, 7, 11); type: in vivo, Sprague Dawley rats; settings: compared with SH/VEH rats
Protocol: Of the 70 rats, 56 (28 females and 28 males) received dual striatal-dopaminergic, corticalcholinergic system lesions (DL) and were randomly assigned to 4 treatment conditions after surgeries (n=14/group, 7/sex). 14 rats (7/sex) received sham lesions. 6-OHDA was delivered bilaterally to dopamine terminals in the dorsal striatum (Sigma-Aldrich; 6.0 μg/2 μL/infusion, bolus; dissolved in 0.9% NaCl with 0.1% ascorbic acid; two infusion sites per hemisphere: AP+1.2 and +0.2 mm; ML ±2.5 and ±3.0 mm relative to bregma; DV −4.8 and −5.0 mm from skull). […]
Complex movement performance measures including fall propensity were assessed using the MCMCT (for details and an illustration see Kucinski, A. et al (2013) Modelling fall propensity in Parkinson's disease: Deficits in the attentional control of complex movements in rats with cortical-cholinergic and striatal-dopaminergic deafferentation. J Neurosci, 33, 16522-16539). […]
Falls, slips, and traversal time were assessed as described in Kucinski, A. et al (2013) Modelling fall propensity in Parkinson's disease: Deficits in the attentional control of complex movements in rats with cortical-cholinergic and striatal-dopaminergic deafferentation. […] A slip was scored when any of the rats' paws lost contact with the surface of the rod and extended below the lower horizontal border of the rod. […]

[4] = test system: patients with AD; settings: compared to donepezil treated patients; cited from earlier work

| Compound | rod traversal performance in the presence of the active distractor ([1]; DL rats) | water retrieval count ([1]; DL rats, multiple comparisons (FIG. 3B)) | number of animals that retrieved water in at least one trial [1] | number of slips [2] | traversal speed (time per rod traversal) [2] | frequency of falls during rod traversal [2] | doorframe-associated falls (fall rates in the presence of the doorframe) [3] | secondary endpoints including measures of global impression and daily living activities [4] |
| --- | --- | --- | --- | --- | --- | --- | --- | --- |
| COc1cc2c(cc1OC)C(=O)C(CC1CCN(Cc3ccccc3)CC1)C2 (centres unmarked) [DON, donepezil] | did not significantly improve the performance | not significantly lower than DL/VEH | 10 | 2.04+0.14 | 4.48 ± 0.36 s | tended to be lower than in DL/VEH rats but the effect did not reach significance | experienced more doorframe-associated falls than SH/VEH rats |  |
| Fc1ccc2c(CCNCc3cccc(OCC(F)(F)C(F)F)c3)c[nH]c2c1 [IDL, N-(2-(6-fluoro-1H-indol-3-yl)ethyl)-3-(2,2,3,3-tetrafluoropropoxy) benzylamine] | did not significantly improve the performance |  | 11 | 2.51+0.38 | 5.48 ± 0.45 s | fell as frequently as untreated DL rats | experienced more doorframe-associated falls than SH/VEH rats | positive results |

Reference: patent US10383849B2, “Use of an acetylcholinesterase inhibitor and idalopirdine for reducing falls in Parkinson's disease patients” (H. Lundbeck A/S, priority 2016, dated 2019)
